# Laboratory results reported in patent publication US20210038587A1, “METHODS AND COMPOSITIONS FOR TREATING NON-ERK MAPK PATHWAY INHIBITOR-RESISTANT CANCERS” (BIOMED VALLEY DISCOVERIES, INC., priority 2013, published 2021).
# Columns and labels:
# [1] = test system: HT29; experiment: Reverse Phase Protein Analysis (RPPA); format: cell-based; conditions: % change from DMSO (matched cell line)
# Outline: (§1)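 Cells were treated 6 h before lysis, with 0.1% (v/v) DMSO as control. Lysates were analysed by reverse-phase protein microarray. Protein changes are expressed as percentage change from DMSO-treated parental cells.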
# [2] = test system: AN3Ca; experiment: Reverse Phase Protein Analysis (RPPA); format: cell-based; conditions: % change from DMSO (matched cell line)
# Outline: as §1
# [3] = test system: A375, MIAPaCa-2, HCT116, Colo205, HT-29, and AN3Ca cells; experiment: Reverse Phase Protein Analysis (RPPA), all six cell lines; format: cell-based; conditions: 10 μM, 6 hours
# Protocol: Control wells were treated with DMSO at 0.1% (v/v) for 6 hours prior to cell lysate generation. Samples were then analyzed using reverse-phase protein microarray technology (Theranostics Health).
# Cell lines with common alterations in BRAF and RAS were assayed: BRAF^V600E mutant lines A375, Colo205, and HT29; KRAS^G12C-mutant cell line MIAPACa-2; KRAS^G13D-mutant cell line HCT116; and AN3Ca with atypical HRAS^F82L mutation. Changes in protein levels are shown as a percentage change from dimethyl sulfoxide (DMSO)-treated parental control (FIG. 32A and Table 23).
# [4] = test system: HCT116; experiment: Reverse Phase Protein Analysis (RPPA); format: cell-based, human; conditions: % change from DMSO (matched cell line)
# Outline: as §1
# [5] = test system: MIAPaCa-2; experiment: Reverse Phase Protein Analysis (RPPA); format: cell-based; conditions: MIAPaca2; % change from DMSO (matched cell line)
compound,measurement,setting,value
Cc1cnc(Nc2ccc(F)cc2Cl)nc1-c1c[nH]c(C(=O)N[C@H](CO)c2cccc(Cl)c2)c1 [Vx-11e],Avg (4ebp1 T70),[1],−2.89%
same,Avg (Akt S473),[1],−20.5%
same,Avg (Akt),[1],−17.84%
same,Avg (Bad S136),[1],5.53%
same,Avg (Bad S155),[1],−11.26%
same,Avg (Bak),[1],2.69%
same,Avg (Bax),[1],−18.47%
same,Avg (Bcl 2),[1],−16.73%
same,Avg (Bcl2 S70),[1],−12.55%
same,Avg (Bcl 2 T56),[1],−25.01%
same,Avg (Bim),[1],3.12%
same,Avg (CREB S133),[1],14.16%
same,Avg (Caspase 3 CL D175),[1],−2.86%
same,Avg (Caspase 7 Cl D198),[1],8.28%
same,Avg (Chk1),[1],4.68%
same,Avg (Chk1 S345),[1],6.44%
same,Avg (Cyclin D1),[1],−35.2%
same,Avg (ERK 1 2),[1],0.24%
same,Avg (ERK 1 2 T202 Y204),[1],435.68%
same,Avg (MAK1 S360),[1],5.64%
same,Avg (Mcl1),[1],1.36%
same,Avg (Raptor S792),[1],−2.13%
same,Avg (Raptor),[1],−6.53%
same,Avg (Rictor),[1],−2.6%
same,Avg (Stat1),[1],4.29%
same,Avg (Stat3),[1],−4.28%
same,Avg (bad S112),[1],−35.62%
same,Avg (c Fos),[1],−8.23%
same,Avg (c Myc),[1],10.71%
same,Avg (mTOR S2448),[1],−13.94%
same,Avg (mTOR S2481),[1],0.52%
same,Avg (mTOR),[1],16.94%
same,Avg (p70 S6 Kinase),[1],−1.72%
same,Avg (p90 RSK S380),[1],−43.41%
same,Avg(S6 Ribo Prot S235 236),[1],−32.8%
same,Avg(S6 Ribo Prot S240 244),[1],−24.35%
same,Avg(Tuberin TSC2 Y1571),[1],2.85%
same,Avg(p70 S6 Kinase S371 S394),[1],−22.86%
same,Avg(p70 S6 Kinase T389 T412),[1],−12.31%
same,Avg (4ebp1 T70),[2],16.67%
same,Avg (Akt S473),[2],56.17%
same,Avg (Akt),[2],−24.62%
same,Avg (Bad S136),[2],−3.81%
same,Avg (Bad S155),[2],4.59%
same,Avg (Bak),[2],−1.6%
same,Avg (Bax),[2],−7.89%
same,Avg (Bcl 2),[2],−18.77%
same,Avg (Bcl2 S70),[2],−14.39%
same,Avg (Bcl 2 T56),[2],−11.73%
same,Avg (Bim),[2],−1.46%
same,Avg (CREB S133),[2],0.16%
same,Avg (Caspase 3 CL D175),[2],−12.7%
same,Avg (Caspase 7 Cl D198),[2],−8.09%
same,Avg (Chk1),[2],−0.46%
same,Avg (Chk1 S345),[2],−9.54%
same,Avg (Cyclin D1),[2],−9.59%
same,Avg (ERK 1 2),[2],−11.27%
same,Avg (ERK 1 2 T202 Y204),[2],718.94%
same,Avg (MAK1 S360),[2],6.83%
same,Avg (Mcl1),[2],−4.24%
same,Avg (Raptor S792),[2],0.37%
same,Avg (Raptor),[2],−2.47%
same,Avg (Rictor),[2],0.02%
same,Avg (Stat1),[2],−0.83%
same,Avg (Stat3),[2],−7.67%
same,Avg (bad S112),[2],−45.63%
same,Avg (c Fos),[2],−5.52%
same,Avg (c Myc),[2],−5.47%
same,Avg (mTOR S2448),[2],−2.37%
same,Avg (mTOR S2481),[2],7.22%
same,Avg (mTOR),[2],−6.27%
same,Avg (p70 S6 Kinase),[2],−2.33%
same,Avg (p90 RSK S380),[2],−28.41%
same,Avg(S6 Ribo Prot S235 236),[2],−18.54%
same,Avg(S6 Ribo Prot S240 244),[2],−12.55%
same,Avg(Tuberin TSC2 Y1571),[2],3.8%
same,Avg(p70 S6 Kinase S371 S394),[2],44.04%
same,Avg(p70 S6 Kinase T389 T412),[2],0.56%
same,"pERK1/2 (ERK1/2-T202, -Y204)",[3],markedly increased pERK1/2
same,Avg (4ebp1 T70),[4],10.35%
same,Avg (Akt S473),[4],−16.94%
same,Avg (Akt),[4],−18.15%
same,Avg (Bad S136),[4],−5.39%
same,Avg (Bad S155),[4],−15.59%
same,Avg (Bak),[4],−3.07%
same,Avg (Bax),[4],−20.46%
same,Avg (Bcl 2),[4],−17.3%
same,Avg (Bcl2 S70),[4],−17.79%
same,Avg (Bcl 2 T56),[4],−25%
same,Avg (Bim),[4],4.82%
same,Avg (CREB S133),[4],−9.17%
same,Avg (Caspase 3 CL D175),[4],−5.19%
same,Avg (Caspase 7 Cl D198),[4],−11.41%
same,Avg (Chk1),[4],−8.63%
same,Avg (Chk1 S345),[4],−16.49%
same,Avg (Cyclin D1),[4],−72.72%
same,Avg (ERK 1 2),[4],−24.01%
same,Avg (ERK 1 2 T202 Y204),[4],873.33%
same,Avg (MAK1 S360),[4],−13.73%
same,Avg (Mcl1),[4],−7.79%
same,Avg (Raptor S792),[4],−11.21%
same,Avg (Raptor),[4],−4.32%
same,Avg (Rictor),[4],1.78%
same,Avg (Stat1),[4],−14.06%
same,Avg (Stat3),[4],−7.76%
same,Avg (bad S112),[4],−23.88%
same,Avg (c Fos),[4],−13.89%
same,Avg (c Myc),[4],−18.56%
same,Avg (mTOR S2448),[4],−10.12%
same,Avg (mTOR S2481),[4],−17.82%
same,Avg (mTOR),[4],−0.59%
same,Avg (p70 S6 Kinase),[4],−4.45%
same,Avg (p90 RSK S380),[4],−33.05%
same,Avg(S6 Ribo Prot S235 236),[4],−90.03%
same,Avg(S6 Ribo Prot S240 244),[4],−86.06%
same,Avg(Tuberin TSC2 Y1571),[4],−16.51%
same,Avg(p70 S6 Kinase S371 S394),[4],−9.89%
same,Avg(p70 S6 Kinase T389 T412),[4],−20.99%
same,Avg (4ebp1 T70),[5],−15.72%
same,Avg (Akt S473),[5],0.48%
same,Avg (Akt),[5],−0.15%
same,Avg (Bad S136),[5],0.36%
same,Avg (Bad S155),[5],7.38%
same,Avg (Bak),[5],−1.93%
same,Avg (Bax),[5],4.33%
same,Avg (Bcl 2),[5],−2.3%
same,Avg (Bcl2 S70),[5],−7.83%
same,Avg (Bcl 2 T56),[5],−9.86%
same,Avg (Bim),[5],2.1%
same,Avg (CREB S133),[5],−13.28%
same,Avg (Caspase 3 CL D175),[5],6.17%
same,Avg (Caspase 7 Cl D198),[5],−0.32%
same,Avg (Chk1),[5],−1.8%
same,Avg (Chk1 S345),[5],2.09%
same,Avg (Cyclin D1),[5],−33.96%
same,Avg (ERK 1 2),[5],−14.85%
same,Avg (ERK 1 2 T202 Y204),[5],729.27%
same,Avg (MAK1 S360),[5],−0.87%
same,Avg (Mcl1),[5],−6.58%
same,Avg (Raptor S792),[5],−3.74%
same,Avg (Raptor),[5],5.4%
same,Avg (Rictor),[5],−13.24%
same,Avg (Stat1),[5],−1.64%
same,Avg (Stat3),[5],0.61%
same,Avg (bad S112),[5],−20.85%
same,Avg (c Fos),[5],−4.43%
same,Avg (c Myc),[5],−5.94%
same,Avg (mTOR S2448),[5],−5.38%
same,Avg (mTOR S2481),[5],−3.12%
same,Avg (mTOR),[5],−1.58%
same,Avg (p70 S6 Kinase),[5],−9.27%
same,Avg (p90 RSK S380),[5],−39.91%
same,Avg(S6 Ribo Prot S235 236),[5],−63.36%
same,Avg(S6 Ribo Prot S240 244),[5],−74.82%
same,Avg(Tuberin TSC2 Y1571),[5],−0.01%
same,Avg(p70 S6 Kinase S371 S394),[5],−30.35%
same,Avg(p70 S6 Kinase T389 T412),[5],−30.66%
